Measurements from ChEMBL document CHEMBL1201862, “PubChem BioAssay data set” (2004).
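Five compound concentrations were applied to cells in 96-well plates for 48 hours; endpoints were derived by simple linear interpolation of the resulting dose-response curve. GI50 = concentration required for 50% inhibition of growth.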 Active and inactive are the calls of the source. Rule as the data show it: active = GI50 up to about 1.1 µM and inactive = higher.

How the values were obtained:
Test in all cases: DTP human tumour cell line panel, 48 h
M14 = tested on: M14
SK-MEL-5 = tested on: SK-MEL-5
TK-10 = tested on: TK-10
SK-OV-3 = tested on: SK-OV-3
HT-29 = tested on: HT-29
A498 = tested on: A498
OVCAR-8 = tested on: OVCAR-8
CAKI-1 = tested on: CAKI-1
ACHN = tested on: ACHN
RPMI-8226 = tested on: RPMI-8226
SF-295 = tested on: SF-295
OVCAR-5 = tested on: OVCAR-5
NCI-H460 = tested on: NCI-H460
CCRF-CEM = tested on: CCRF-CEM
OVCAR-3 = tested on: OVCAR-3
RXF 393 = tested on: RXF 393

Measured: GI50

Cc1cc(Cl)ccc1C1OC(=O)c2c1ccc1ccccc21 (stereo unspecified)
inactive: M14 > 100 µM | SK-MEL-5 58.2 µM | TK-10 > 100 µM | SK-OV-3 > 100 µM | HT-29 > 100 µM | A498 > 100 µM | OVCAR-8 > 100 µM | CAKI-1 > 100 µM | ACHN > 100 µM | RPMI-8226 > 100 µM | SF-295 > 100 µM | OVCAR-5 > 100 µM | NCI-H460 > 100 µM | CCRF-CEM > 100 µM | OVCAR-3 > 100 µM

Fc1cccc(C2SCc3nc4ccccc4n32)c1 (stereo unspecified)
inactive: RXF 393 > 10 µM | SK-MEL-5 12.7 µM | TK-10 > 10 µM | SK-OV-3 50.8 µM | HT-29 68.7 µM | OVCAR-8 66.5 µM | CAKI-1 25.7 µM | ACHN 24.4 µM | RPMI-8226 23.5 µM | SF-295 48.3 µM | OVCAR-5 17.3 µM | NCI-H460 39.6 µM | CCRF-CEM 41.2 µM | OVCAR-3 36.2 µM

CN1NC(c2ccccc2)=C(C#N)C(=O)CC1c1ccccc1Cl (stereo unspecified)
inactive: M14 > 100 µM | RXF 393 > 100 µM | SK-MEL-5 69.8 µM | TK-10 > 100 µM | SK-OV-3 > 100 µM | HT-29 > 100 µM | CAKI-1 > 100 µM | ACHN > 100 µM | RPMI-8226 > 100 µM | SF-295 > 100 µM | OVCAR-5 > 100 µM | NCI-H460 > 100 µM | CCRF-CEM > 100 µM

O=Cc1ccc2c(c1I)OCO2
inactive: M14 > 100 µM | SK-MEL-5 > 100 µM | TK-10 > 100 µM | SK-OV-3 > 100 µM | HT-29 > 100 µM | A498 > 100 µM | OVCAR-8 > 100 µM | CAKI-1 > 100 µM | ACHN > 100 µM | RPMI-8226 > 100 µM | SF-295 > 100 µM | OVCAR-5 > 100 µM | NCI-H460 > 100 µM | CCRF-CEM > 100 µM | OVCAR-3 > 100 µM

O=[N+]([O-])c1ccc(-c2noc(-c3ccc(Cl)cc3)c2C2=NCCN2)cc1
inactive: M14 > 100 µM | RXF 393 > 100 µM | SK-MEL-5 > 100 µM | HT-29 > 100 µM | OVCAR-8 > 100 µM | CAKI-1 > 100 µM | ACHN > 100 µM | RPMI-8226 > 100 µM | SF-295 > 100 µM | OVCAR-5 > 100 µM | NCI-H460 > 100 µM | CCRF-CEM > 100 µM | OVCAR-3 > 100 µM

N#C/C(=C1\OC(=O)C(c2ccc(Br)cc2)=C1O)c1ccc(Br)cc1
inactive: M14 14.8 µM | RXF 393 12 µM | TK-10 22.1 µM | SK-OV-3 18.5 µM | HT-29 17.3 µM | A498 15.5 µM | OVCAR-8 12.1 µM | CAKI-1 17.3 µM | ACHN 15.7 µM | RPMI-8226 15.1 µM | SF-295 17.7 µM | OVCAR-5 19.1 µM | NCI-H460 15.7 µM | CCRF-CEM 11.1 µM | OVCAR-3 14.9 µM

O=C1c2ccccc2C(=O)N1C/C=N/NS(=O)(=O)c1ccc(Br)cc1
inactive: M14 > 100 µM | SK-MEL-5 > 100 µM | TK-10 > 100 µM | SK-OV-3 > 100 µM | HT-29 > 100 µM | A498 > 100 µM | OVCAR-8 > 100 µM | CAKI-1 74.1 µM | ACHN > 100 µM | RPMI-8226 > 100 µM | SF-295 > 100 µM | OVCAR-5 > 100 µM | NCI-H460 > 100 µM | CCRF-CEM > 100 µM | OVCAR-3 > 100 µM

C=CSCCC(N)C(=O)O (stereo unspecified)
inactive: M14 > 100 µM | RXF 393 > 100 µM | SK-MEL-5 > 100 µM | TK-10 > 100 µM | HT-29 > 100 µM | A498 > 100 µM | OVCAR-8 > 100 µM | CAKI-1 > 100 µM | ACHN > 100 µM | SF-295 > 100 µM | OVCAR-5 > 100 µM | NCI-H460 > 100 µM | CCRF-CEM > 100 µM | OVCAR-3 > 100 µM

Cc1c(NC(=O)C(C)(C)Br)c(=O)oc2c(C)c3occc(=O)c3cc12
inactive: M14 48.9 µM | RXF 393 55.3 µM | SK-MEL-5 29.7 µM | TK-10 > 100 µM | HT-29 90.2 µM | A498 18.1 µM | OVCAR-8 55 µM | ACHN 45.8 µM | RPMI-8226 45.3 µM | SF-295 22.9 µM | NCI-H460 58.9 µM | CCRF-CEM 28.2 µM | OVCAR-3 > 100 µM

Nc1c(-c2cn(Cc3ccccc3)c3ccccc23)[n+]([O-])c2ccccc2[n+]1[O-]
inactive: M14 25.4 µM | SK-MEL-5 21.9 µM | TK-10 28.3 µM | SK-OV-3 24.8 µM | HT-29 27.2 µM | A498 18.4 µM | OVCAR-8 45.4 µM | CAKI-1 16 µM | ACHN 15.5 µM | RPMI-8226 24.6 µM | SF-295 21.9 µM | OVCAR-5 25.6 µM | NCI-H460 28.5 µM | CCRF-CEM 27.1 µM | OVCAR-3 19.8 µM

CC(=O)OC1CCn2nnc(CO)c21 (stereo unspecified)
inactive: RXF 393 > 100 µM | SK-MEL-5 > 100 µM | TK-10 > 100 µM | SK-OV-3 > 100 µM | HT-29 > 100 µM | OVCAR-8 > 100 µM | CAKI-1 > 100 µM | RPMI-8226 > 100 µM | SF-295 > 100 µM | OVCAR-5 > 100 µM | NCI-H460 > 100 µM | OVCAR-3 > 100 µM

O=c1[nH]c(=O)n(C2OC(CO)C(N(O)Cc3ccc(F)cc3)C2O)cc1Br (stereo unspecified)
inactive: M14 > 100 µM | RXF 393 > 100 µM | SK-MEL-5 > 100 µM | TK-10 > 100 µM | SK-OV-3 > 100 µM | HT-29 > 100 µM | A498 > 100 µM | OVCAR-8 > 100 µM | ACHN > 100 µM | RPMI-8226 > 100 µM | SF-295 > 100 µM | OVCAR-5 > 100 µM | NCI-H460 > 100 µM | CCRF-CEM > 100 µM | OVCAR-3 > 100 µM

O=C(Nc1nnc(S)[nH]1)C(=O)C(C(=O)c1ccc2ccccc2c1)C1OC(=O)c2ccccc21 (stereo unspecified)
inactive: M14 19.1 µM | RXF 393 10.6 µM | SK-MEL-5 18.1 µM | TK-10 21.6 µM | SK-OV-3 23.4 µM | HT-29 35 µM | A498 > 100 µM | OVCAR-8 11.9 µM | CAKI-1 30.3 µM | ACHN > 100 µM | RPMI-8226 7.69 µM | OVCAR-5 44.3 µM | NCI-H460 > 100 µM | CCRF-CEM 15.5 µM | OVCAR-3 15.5 µM

c1ccc(P(=C2c3ccccc3-c3ccccc32)(c2ccccc2)c2ccccc2)cc1
inactive: M14 8.34 µM | RXF 393 13 µM | SK-MEL-5 2.17 µM | TK-10 7.64 µM | SK-OV-3 20.7 µM | HT-29 2.99 µM | OVCAR-8 3.04 µM | CAKI-1 6.41 µM | ACHN 2.66 µM | SF-295 2.94 µM | OVCAR-5 4.32 µM | NCI-H460 3.37 µM | CCRF-CEM 2.51 µM | OVCAR-3 2.53 µM

CC1=CC(=O)C(=O)C2=C1OC1(C2)C(C)CCC2C3(C)CCC(O)C(C)(C)C3CCC21C (stereo unspecified)
inactive: M14 18.8 µM | RXF 393 15.3 µM | SK-MEL-5 18 µM | TK-10 18.8 µM | SK-OV-3 29 µM | HT-29 20.6 µM | OVCAR-8 19.5 µM | CAKI-1 17.5 µM | ACHN 16.9 µM | RPMI-8226 23.6 µM | SF-295 15.7 µM | OVCAR-5 18.2 µM | NCI-H460 17.5 µM | CCRF-CEM 14 µM | OVCAR-3 18.6 µM

CCOC(=O)C(C)Sc1nnc(COc2ccc(Cl)cc2)n1-c1ccccc1 (stereo unspecified)
inactive: M14 16.9 µM | RXF 393 22.9 µM | SK-MEL-5 21.4 µM | TK-10 27.5 µM | SK-OV-3 36.1 µM | HT-29 18 µM | OVCAR-8 23.4 µM | CAKI-1 16.2 µM | ACHN 17.5 µM | RPMI-8226 19.1 µM | SF-295 22 µM | OVCAR-5 26.6 µM | NCI-H460 17.7 µM | CCRF-CEM 14.5 µM | OVCAR-3 17.4 µM

CCOC(=O)Cn1c(=O)[nH]c(=O)c2[nH]cnc21
inactive: M14 > 100 µM | RXF 393 > 100 µM | SK-MEL-5 > 100 µM | TK-10 > 100 µM | SK-OV-3 > 100 µM | HT-29 > 100 µM | A498 > 100 µM | OVCAR-8 > 100 µM | ACHN > 100 µM | OVCAR-5 > 100 µM | NCI-H460 > 100 µM | CCRF-CEM > 100 µM | OVCAR-3 > 100 µM

CS(=O)(=O)OCCCOS(C)(=O)=O
inactive: M14 > 100 µM | RXF 393 > 100 µM | SK-MEL-5 > 100 µM | TK-10 > 100 µM | SK-OV-3 > 100 µM | HT-29 > 100 µM | A498 > 100 µM | OVCAR-8 > 100 µM | ACHN > 100 µM | RPMI-8226 > 100 µM | SF-295 > 100 µM | OVCAR-5 > 100 µM | NCI-H460 > 100 µM | CCRF-CEM > 100 µM | OVCAR-3 > 100 µM

COC(=O)CC(=O)OC1C[C@@H]2CCC3C(C)(C)CCC[C@]3(C)C23CC[C@@]1(C)C3 (stereo partly specified)
inactive: M14 18 µM | RXF 393 18.9 µM | SK-MEL-5 17.6 µM | TK-10 19.1 µM | SK-OV-3 24.5 µM | HT-29 19.2 µM | OVCAR-8 19.5 µM | CAKI-1 16.9 µM | ACHN 17.5 µM | RPMI-8226 45.9 µM | SF-295 19.2 µM | OVCAR-5 16.1 µM | NCI-H460 19.8 µM | CCRF-CEM > 100 µM | OVCAR-3 16.9 µM
